Here are results for 19 molecules from patent US11731943B2, “Therapeutic compounds, compositions and methods of use thereof” (priority 2016, dated 2023).

The target in assay [1] is isolated recombinant JAK1 kinase domain (Homo sapiens (Human), UniProt P23458). As to the kind of experiment: JAK1 enzyme assay (Caliper LabChip, Ki). Type of assay: biochemical. The conditions noted are these: read-out: JAK1 Ki. A digest of the protocol: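 Ki derived via Morrison tight-binding model, ATP-competitive correction applied. Read-out: product/total ratio of a 5-carboxyfluorescein-tagged JAK3 peptide separated on Caliper LabChip after phosphorylation by isolated human JAK1 kinase domain (22 °C, 30 min; EDTA quench, 50 mM final).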

Assay [2] addresses isolated recombinant JAK2 kinase domain (Homo sapiens (Human), UniProt O60674). As to the kind of experiment: JAK2 enzyme assay (Caliper LabChip, Ki). Type of assay: biochemical. The procedure, abridged: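 Caliper LabChip readout of phosphorylated product as a fraction of total substrate, a fluorescently N-terminally labelled JAK3-derived peptide. Isolated human JAK kinase domains were incubated 30 min at 22 °C before EDTA quench (50 mM final).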

In assay [3] the test system is JAK1-dependent STAT6 phosphorylation downstream of IL-13 stimulation in BEAS-2B human bronchial epithelial cells. The assay is described as follows: JAK1 pathway assay in BEAS-2B cells (IL-13-pSTAT6, MSD). The format is cell-based. The conditions noted are these: BEAS-2B cells, IL-13 stimulation, read-out: IL-13 p-STAT6 BEAS-2B IC50.

SMILES strings stand for the structures. Like-named read-outs stand apart in the source and are kept apart here.

In general, Ki refers to the equilibrium dissociation constant of an inhibitor or competing ligand from its target. As usually defined, the IC50 is the midpoint of a concentration-inhibition curve.

isolated recombinant JAK2 kinase domain, sequence (O60674 849-1124): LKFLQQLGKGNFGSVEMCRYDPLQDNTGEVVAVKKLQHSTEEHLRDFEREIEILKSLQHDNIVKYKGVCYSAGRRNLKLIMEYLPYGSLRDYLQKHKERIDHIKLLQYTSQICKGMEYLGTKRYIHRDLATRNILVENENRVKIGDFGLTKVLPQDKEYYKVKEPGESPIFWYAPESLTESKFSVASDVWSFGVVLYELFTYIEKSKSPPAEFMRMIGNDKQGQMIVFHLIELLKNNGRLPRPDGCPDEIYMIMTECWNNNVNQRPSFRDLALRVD
isolated recombinant JAK1 kinase domain, sequence (P23458 875-1153): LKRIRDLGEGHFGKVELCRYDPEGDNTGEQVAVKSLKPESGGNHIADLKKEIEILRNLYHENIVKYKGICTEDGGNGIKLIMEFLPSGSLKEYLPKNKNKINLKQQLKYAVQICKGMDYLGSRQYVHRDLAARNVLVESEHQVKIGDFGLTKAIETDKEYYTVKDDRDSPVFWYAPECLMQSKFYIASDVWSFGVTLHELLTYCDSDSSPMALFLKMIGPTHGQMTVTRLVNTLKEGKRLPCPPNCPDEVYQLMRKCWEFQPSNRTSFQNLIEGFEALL

With `N#CCC1(n2cc(C(N)=O)c(NC(=O)C3CC3)n2)CCN(Cc2ccc(-c3csc(Cl)c3)c(F)c2)CC1` [Example 141, 1-[1-[[4-(5-chloro-3-thienyl)-3-fluoro-phenyl]methyl]-4-(cyanomethyl)-4-piperidyl]-3-(cyclopropanecarbonylamino) pyrazole-4-carboxamide], the Ki amounted to 0.8 nM in assay [1] and 3.4 nM in assay [2]. Further, the IC50 in assay [3] (Homo sapiens, BEAS-2B) turned out to be 62 nM.
The matching figures for `N#CCC1(n2cc(C(N)=O)c(NC(=O)C3CC3)n2)CCN(Cc2ccc(F)cc2)CC1` [Example 57]: 3.9 nM, 49 nM and 128 nM.
In the same order, the values of `N#CCC1(n2cc(C(N)=O)c(NC(=O)C3CC3)n2)CCC(Nc2ccc(-c3ccccc3)cc2)CC1` (stereo not drawn) [Example 245, 1-[1-(cyanomethyl)-4-(4-phenylanilino)cyclohexyl]-3-(cyclopropanecarbonylamino) pyrazole-4-carboxamide] are 0.23 nM, 0.92 nM and 14 nM.
Consider `N#CCC1(n2cc(C(N)=O)c(NC(=O)C3CC3)n2)CCC(Nc2ccc(-n3nccn3)cc2)CC1` (stereo not drawn) [Example 288, 1-[1-(cyanomethyl)-4-[4-(triazol-2-yl)anilino]cyclohexyl]-3-(cyclopropanecarbonylamino) pyrazole-4-carboxamide], for which the inhibitory constant (Ki) in assay [1] came to 0.28 nM; in assay [2] it was 4.4 nM. In addition, the IC50 in assay [3] (Homo sapiens, BEAS-2B) turned out to be 41 nM.
The matching figures for `COC(=O)Nc1nn(C2(CC#N)CCN(Cc3ccc(-c4ccco4)nc3F)CC2F)cc1C(N)=O` (stereo not drawn) [Example 226, methyl N-[4-carbamoyl-1-[4-(cyanomethyl)-3-fluoro-1-[[2-fluoro-6-(2-furyl)-3-pyridyl]methyl]-4-piperidyl]pyrazol-3-yl]carbamate]: 0.37 nM, 0.56 nM and 49 nM.
The matching figures for `CC(OC(=O)N1CCC(CC#N)(n2cc(C(N)=O)c(NC(=O)C3CC3)n2)CC1)C1CC1` (stereo not drawn) [Example 182, 1-cyclopropylethyl 4-[4-carbamoyl-3-(cyclopropanecarbonylamino)pyrazol-1-yl]-4-(cyanomethyl)piperidine-1-carboxylate]: 4.7 nM, 50.7 nM and 675 nM.
In the same order, the values of `CC#Cc1ccc(CN2CCC(CC#N)(n3cc(C(N)=O)c(NC(=O)OC)n3)C(F)C2)cc1` (stereo not drawn) [Example 298, Methyl (4-carbamoyl-1-(4-(cyanomethyl)-3-fluoro-1-(4-(prop-1-yn-1-yl)benzyl)piperidin-4-yl)-1H-pyrazol-3-yl)carbamate] are 0.6 nM, 0.58 nM and 29 nM.
For the molecule `N#CCC1(n2cc(C(N)=O)c(NC(=O)C3CC3C#N)n2)CCN(Cc2ccc(-c3ccccc3)cc2)CC1F` (stereo not drawn) [Example 192, 3-[(2-cyanocyclopropanecarbonyl)amino]-1-[4-(cyanomethyl)-3-fluoro-1-[(4-phenylphenyl)methyl]-4-piperidyl]pyrazole-4-carboxamide], the Ki was 0.35 nM in assay [1] and 1.2 nM in assay [2]. In assay [3] (Homo sapiens, BEAS-2B), the IC50 was found to be 28 nM.
The matching figures for `N#CC[C@]1(n2cc(C(N)=O)c(NC(=O)C3CC3)n2)CCN(Cc2ccccc2)C[C@@H]1F` [Example 164, 1-[1-benzyl-4-(cyanomethyl)-3-fluoro-4-piperidyl]-3-(cyclopropanecarbonylamino) pyrazole-4-carboxamide]: 2.7 nM, 9 nM and 275 nM.
For the molecule `CCC1(n2cc(C(N)=O)c(Nc3ccc(S(=O)(=O)C(F)F)cc3)n2)CCN(C(=O)CC#N)CC1` [Example 304], the Ki was 0.49 nM in assay [1] and 2.8 nM in assay [2]. In addition, in assay [3] (Homo sapiens, BEAS-2B), the half-inhibitory concentration (IC50) was 220 nM.
On to `N#CC[C@@]1(n2cc(C(N)=O)c(NC(=O)C3CC3)n2)CCN(Cc2ccc(-c3ccccc3)cc2)C[C@@H]1F` (single isomer, unassigned) [Example 13], for which the figures for the inhibition constant (Ki) in assay [1] and in assay [2] were 0.6 nM and 2.2 nM, respectively. The IC50 in assay [3] (Homo sapiens, BEAS-2B) was determined as 37 nM.
As for `N#CCC1(n2cc(C(N)=O)c(NC(=O)C3CC3)n2)CCN(CC2CCC(c3ccccc3)CC2)CC1F` (stereo not drawn) [Example 234, 1-[4-(cyanomethyl)-3-fluoro-1-[(4-phenylcyclohexyl)methyl]-4-piperidyl]-3-(cyclopropanecarbonylamino) pyrazole-4-carboxamide], the Ki in assay [1] amounted to 0.27 nM; in assay [2], 1 nM. The IC50 in assay [3] was 31 nM.
`C#Cc1ccc(CN2CCC(CC#N)(n3cc(C(N)=O)c(NC(=O)C4CC4)n3)C(F)C2)c(Cl)c1` (stereo not drawn) [Example 280, 1-[1-[(2-chloro-4-ethynyl-phenyl)methyl]-4-(cyanomethyl)-3-fluoro-4-piperidyl]-3-(cyclopropanecarbonylamino) pyrazole-4-carboxamide]: the values for the Ki in assay [1] and in assay [2] were 0.3 nM and 0.4 nM, respectively. The IC50 in assay [3] (Homo sapiens, BEAS-2B) is 16 nM.
The matching figures for `CCc1ccc(C2(F)CN(C3CCC(CC#N)(n4cc(C(N)=O)c(NC(=O)C5CC5)n4)CC3)C2)cc1` (stereo not drawn) [Example 265, 1-[1-(cyanomethyl)-4-[3-(4-ethylphenyl)-3-fluoro-azetidin-1-yl]cyclohexyl]-3-(cyclopropanecarbonylamino) pyrazole-4-carboxamide]: 1.1 nM, 4.2 nM and 88 nM.
In the same order, the values of `N#CCC1(n2cc(C(N)=O)c(NC(=O)C3CC3)n2)CCN(Cc2cnc(-c3ccccc3)cc2F)CC1` [Example 202, 1-[4-(cyanomethyl)-1-[(4-fluoro-6-phenyl-3-pyridyl)methyl]-4-piperidyl]-3-(cyclopropanecarbonylamino) pyrazole-4-carboxamide] are 0.55 nM, 0.74 nM and 74 nM.
The matching figures for `N#CCC1(n2cc(C(N)=O)c(NC(=O)C3CC3)n2)CCN(C(=O)OCC2CC2)CC1` [Example 17, Cyclopropylmethyl 4-(4-carbamoyl-3-(cyclopropanecarboxamido)-1H-pyrazol-1-yl)4-(cyanomethyl) piperidine-1-carboxylate]: 4 nM, 69.4 nM and 948 nM.
As for `N#CCC1(n2cc(C(N)=O)c(NC(=O)C3CC3)n2)CCN(Cc2ccc(-c3ccc(C(F)(F)F)cc3)cc2)CC1` [Example 151, 1-[4-(cyanomethyl)-1-[[4-[4-(trifluoromethyl)phenyl]phenyl]methyl]-4-piperidyl]-3-(cyclopropanecarbonylamino) pyrazole-4-carboxamide], the Ki is 3.4 nM in assay [1] and 154 nM in assay [2]. Also, the concentration for half-maximal inhibition (IC50) in assay [3] (Homo sapiens, BEAS-2B) is 286 nM.
In the same order, the values of `N#CCC1(n2cc(C(N)=O)c(NC(=O)C3CC3C#N)n2)CCN(Cc2ccc(-c3ccccc3)nc2F)CC1F` (stereo not drawn) [Example 227, 3-[(2-cyanocyclopropanecarbonyl)amino]-1-[4-(cyanomethyl)-3-fluoro-1-[(2-fluoro-6-phenyl-3-pyridyl)methyl]-4-piperidyl]pyrazole-4-carboxamide] are 0.31 nM, 0.63 nM and 54 nM.
In the same order, the values of `N#CCC1(n2cc(C(N)=O)c(NC(=O)C3CC3)n2)CCN(Cc2ccc(C#CC3CC3)cc2)CC1` [Example 299, 1-(4-(Cyanomethyl)-1-(4-(cyclopropylethynyl)benzyl)piperidin-4-yl)-3-(cyclopropanecarboxamido)-1H-pyrazole-4-carboxamide] are 1.1 nM, 3 nM and 85 nM.
